The text below walks through data of ChEMBL document CHEMBL4673352, “Discovery of AZD4573, a Potent and Selective Inhibitor of CDK9 That Enables Short Duration of Target Engagement for the Treatment of Hematological Malignancies” (J Med Chem, 2020).

Data set [1] can be described thus: Half-life in Beagle dog at 5.2 umol/kg, iv administered over 0.25 hrs formulated as solution in 5% DMSO. The data set is classed as ADME, organism-based, Canis lupus familiaris. The following applies: in vivo, dose 5.2 µmol/kg.
The nature of data set [2]: Solubility of compound in pH 7.4 PBS buffer using crystalline form of sample. The data set is classed as physicochemical.
A short description of data set [3]: Clearance in mouse plasma at […], iv formulated as solution. The following applies: dose 4.8 µmol/kg. It is filed as ADME, organism-based.
The nature of data set [4]: Drug metabolism in human hepatocytes assessed as 4-(4-(2-((1S,3R)-3-acetamidocyclohexanecarboxamido)-5-chloropyridin-4-yl)-1H-pyrazol-5-yl)butanoic acid metabolite formation. The data set is classed as ADME, cell-based, Hepatocyte.
Data set [5] can be described thus: Drug metabolism in human liver microsome assessed as 4-(4-(2-((1S,3R)-3-acetamidocyclohexanecarboxamido)-5-chloropyridin-4-yl)-1H-pyrazol-5-yl)butanoic acid formation at 10 uM measured after 1 hr in presence of NADPH by LC-UV-MS analysis. The data set is classed as ADME. The following applies: microsomes.
In data set [6] the target is CDK2/Cyclin A2 (Homo sapiens) (UniProt P24941+P20248). Description: Inhibition of human recombinant full-length CDK2/CyclinA expressed in Sf21 insect cells using Histone H1 as substrate at 1 uM incubated for 40 mins in presence of [gamma32P]-ATP by scintillation counting method relative to control.
A short description of data set [7]: Half-life in mouse at […], iv formulated as solution. It is filed as ADME, organism-based. The following applies: in vivo.
Data set [8] in a line: Drug metabolism in human liver microsomes assessed as 3-(4-(2-((1S,3R)-3-acetamidocyclohexanecarboxamido)-5-fluoropyridin-4-yl)-1H-pyrazol-5-yl)-2,2-dimethylpropanoic acid formation at 10 uM measured after 1 hr in presence of NADPH by LC-UV-MS analysis. It is filed as ADME, Microsome. For orientation: Liver microsomes are a subcellular fraction often used to study metabolism.

Data set [9] has as its target T1, Cyclin-dependent kinase 9 (Homo sapiens, UniProt P50750).
For data set [10], the target named is T1, Cyclin-dependent kinase 9. Description: Inhibition of CDK9 in human MV4-11 cells assessed as induction of caspase-3/7 activation measured after 6 hrs followed by Caspase-glo reagent based assay. It is filed as cell-based.
Data set [11] is described as follows: Thermodynamic solubility of compound in pH 7.4 PBS buffer using crystalline form of sample. The data set is classed as physicochemical. The following applies: read-out: Therm_solubility.
Data set [12] is described as follows: Thermodynamic solubility of compound in pH 4 0.1 M acetate buffer using crystalline form of sample. The following applies: read-out: Therm_solubility. The data set is classed as physicochemical.
For data set [13], the species on record is Homo sapiens. Briefly: Selectivity ratio of IC50 for recombinant full length human His-tagged CDK1/CyclinB expressed in baculovirus infected insect cells to IC50 for Inhibition of recombinant full length human N-terminal GST-fused CDK9 (1 to 372 residues)/His-tagged CyclinT1 (1 to 726 residues) expressed in baculovirus infected insect cells.
Data set [14] in a line: Drug metabolism in human liver microsomes assessed as (1S,3R)-3-acetamido-N-(5-fluoro-4-(6-hydroxy-5,5-dimethyl-5,6-dihydro-4H-pyrrolo[1,2-b]pyrazol-3-yl)pyridin-2-yl)cyclohexanecarboxamide formation at 10 uM measured after 1 hr in presence of NADPH by LC-UV-MS analysis. The data set is classed as ADME, Microsome.
The nature of data set [15]: Drug metabolism in human liver microsomes assessed as (1S,3R)-3-acetamido-N-(5-fluoro-4-(5-(3-hydroxy-2,2-dimethylpropyl)-1H-pyrazol-4-yl)pyridin-2-yl)cyclohexanecarboxamide formation at 10 uM measured after 1 hr in presence of NADPH by LC-UV-MS analysis. The data set is classed as ADME, Microsome.
Data set [16] has as its target T2, Dual specificity tyrosine-phosphorylation-regulated kinase 2 (Homo sapiens) (UniProt Q92630).
T2 sequence (whole entry): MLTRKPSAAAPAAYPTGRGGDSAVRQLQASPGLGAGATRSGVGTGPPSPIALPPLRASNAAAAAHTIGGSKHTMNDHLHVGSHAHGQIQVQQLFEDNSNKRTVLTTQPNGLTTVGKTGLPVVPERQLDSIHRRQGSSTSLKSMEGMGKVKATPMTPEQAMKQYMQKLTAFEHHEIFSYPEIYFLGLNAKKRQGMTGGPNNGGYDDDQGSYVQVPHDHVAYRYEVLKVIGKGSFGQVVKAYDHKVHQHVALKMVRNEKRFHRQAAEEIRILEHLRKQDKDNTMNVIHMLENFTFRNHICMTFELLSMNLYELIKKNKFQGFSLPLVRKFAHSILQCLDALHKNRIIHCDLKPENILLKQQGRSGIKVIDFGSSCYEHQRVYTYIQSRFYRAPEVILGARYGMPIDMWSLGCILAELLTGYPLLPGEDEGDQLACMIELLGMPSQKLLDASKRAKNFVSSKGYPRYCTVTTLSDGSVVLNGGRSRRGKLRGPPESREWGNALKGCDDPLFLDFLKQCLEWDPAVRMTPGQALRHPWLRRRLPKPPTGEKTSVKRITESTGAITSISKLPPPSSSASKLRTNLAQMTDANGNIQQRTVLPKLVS
Description: Inhibition of human recombinant full length N-terminal GST-tagged DYRK2 expressed in Escherichia coli at 0.1 uM incubated for 60 mins by TR-FRET based LanthaScreen Eu kinase binding assay relative to control. On the technique in general: TR-FRET usually uses a lanthanide donor and a delayed reading to cut background.

For data set [17], the target named is Glycogen synthase kinase-3 beta (Homo sapiens, UniProt P49841). Description: Inhibition of GSK3beta (unknown origin) in presence of 5 mM ATP.
Sequence of Glycogen synthase kinase-3 beta (P49841 whole entry): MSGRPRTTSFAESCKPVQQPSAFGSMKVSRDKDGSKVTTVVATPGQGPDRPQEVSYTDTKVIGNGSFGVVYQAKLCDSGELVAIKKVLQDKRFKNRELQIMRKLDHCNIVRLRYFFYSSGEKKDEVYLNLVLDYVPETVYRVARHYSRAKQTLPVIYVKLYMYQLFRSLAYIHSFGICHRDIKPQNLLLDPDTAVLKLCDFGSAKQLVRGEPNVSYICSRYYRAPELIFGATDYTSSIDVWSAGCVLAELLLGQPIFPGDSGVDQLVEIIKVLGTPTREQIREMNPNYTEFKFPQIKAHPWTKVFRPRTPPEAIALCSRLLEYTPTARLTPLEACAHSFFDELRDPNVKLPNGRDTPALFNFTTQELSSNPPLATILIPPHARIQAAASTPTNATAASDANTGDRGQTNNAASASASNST
The target of data set [18] is Dual specificity mitogen-activated protein kinase kinase 7 (Homo sapiens) (UniProt O14733). Description: Inhibition of human recombinant […] using NK1a1 as substrate at 1 uM incubated for 40 mins in presence of [gamma32P]-ATP by scintillation counting method relative to control.
Sequence of Dual specificity mitogen-activated protein kinase kinase 7 (Homo sapiens) (O14733 whole entry): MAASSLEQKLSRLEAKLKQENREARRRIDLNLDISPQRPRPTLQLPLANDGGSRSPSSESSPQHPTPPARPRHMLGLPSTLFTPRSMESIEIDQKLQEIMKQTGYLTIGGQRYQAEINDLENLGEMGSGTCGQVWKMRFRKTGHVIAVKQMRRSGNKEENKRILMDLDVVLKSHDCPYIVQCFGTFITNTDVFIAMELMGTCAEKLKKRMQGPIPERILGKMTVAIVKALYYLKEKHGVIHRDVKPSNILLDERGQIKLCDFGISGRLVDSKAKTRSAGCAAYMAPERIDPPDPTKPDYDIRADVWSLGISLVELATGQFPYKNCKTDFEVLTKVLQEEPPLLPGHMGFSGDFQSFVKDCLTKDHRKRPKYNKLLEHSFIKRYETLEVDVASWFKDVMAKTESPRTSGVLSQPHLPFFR
Data set [19] is described as follows: Clearance in cynomolgus monkey plasma at 0.46 umol/kg, iv administered over 0.25 hrs formulated as solution in DMA/PEG400/Tween80. The data set is classed as ADME, organism-based, Macaca fascicularis. The following applies: dose 0.46 µmol/kg.
Data set [20] is described as follows: Clearance in Beagle dog plasma at 0.23 umol/kg, iv administered over 0.25 hrs formulated as solution in 10% DMSO/90% water. It is filed as ADME, organism-based, Canis lupus familiaris. The following applies: dose 0.23 µmol/kg.
A short description of data set [21]: Volume of distribution at steady state in Beagle dog at 0.23 umol/kg, iv administered over 0.25 hrs formulated as solution in 10% DMSO/90% water. The data set is classed as ADME, organism-based, Canis lupus familiaris. The following applies: in vivo, dose 0.23 µmol/kg, read-out: Vdss.
The nature of data set [22]: Half-life in cynomolgus monkey at 0.46 umol/kg, iv administered over 0.25 hrs formulated as solution in DMA/PEG400/Tween80. The data set is classed as ADME, organism-based, Macaca fascicularis. The following applies: in vivo, dose 0.46 µmol/kg.
The target in data set [23] is Glycogen synthase kinase-3 alpha (Homo sapiens, UniProt P49840). Description: Inhibition of GSK3alpha (unknown origin) in presence of 5 mM ATP.
Sequence of Glycogen synthase kinase-3 alpha (P49840 whole entry): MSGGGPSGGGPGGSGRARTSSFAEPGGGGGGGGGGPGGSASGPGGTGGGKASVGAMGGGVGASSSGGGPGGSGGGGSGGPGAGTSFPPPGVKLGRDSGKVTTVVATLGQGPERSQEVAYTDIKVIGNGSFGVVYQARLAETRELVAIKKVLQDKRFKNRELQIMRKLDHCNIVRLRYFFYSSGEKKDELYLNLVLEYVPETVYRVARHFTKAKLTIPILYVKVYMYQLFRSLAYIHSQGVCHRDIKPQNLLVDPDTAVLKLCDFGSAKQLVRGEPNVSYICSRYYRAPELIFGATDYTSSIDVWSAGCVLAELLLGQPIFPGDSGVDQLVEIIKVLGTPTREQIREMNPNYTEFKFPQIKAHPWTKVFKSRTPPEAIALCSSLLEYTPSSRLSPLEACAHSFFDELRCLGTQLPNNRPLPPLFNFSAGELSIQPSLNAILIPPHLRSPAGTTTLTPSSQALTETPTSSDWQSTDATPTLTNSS
The test system of data set [24] is MV4-11. Description: Antitumor activity against human MV4-11 cells xenografted in CB17 SCID mouse assessed as tumor regression at 15 mg/kg, ip BID administered at 2 hrs dosing interval with 2 days on and 5 days off dosing schedule observed for 125 days. The data set is classed as functional. The following applies: time 125 day.
The target in data set [25] is Cyclin-dependent kinase 9 (Mus musculus) (UniProt Q99J95). Description: In-vivo inhibition of CDK9 in mouse xenografted with human MV4-11 cells assessed as reduction in Mcl-1 at 5 to 15 mg/kg, ip BID administered at 2 hrs dose interval with 2 days on and 5 days off dosing schedule by Western blot analysis. It is filed as functional, organism-based. The following applies: dose 5-15 mg/kg. Background: A xenograft is tissue or cells of one species grown in another, often human tumour cells in immunodeficient mice.
Sequence of Cyclin-dependent kinase 9 (Mus musculus) (Q99J95 whole entry): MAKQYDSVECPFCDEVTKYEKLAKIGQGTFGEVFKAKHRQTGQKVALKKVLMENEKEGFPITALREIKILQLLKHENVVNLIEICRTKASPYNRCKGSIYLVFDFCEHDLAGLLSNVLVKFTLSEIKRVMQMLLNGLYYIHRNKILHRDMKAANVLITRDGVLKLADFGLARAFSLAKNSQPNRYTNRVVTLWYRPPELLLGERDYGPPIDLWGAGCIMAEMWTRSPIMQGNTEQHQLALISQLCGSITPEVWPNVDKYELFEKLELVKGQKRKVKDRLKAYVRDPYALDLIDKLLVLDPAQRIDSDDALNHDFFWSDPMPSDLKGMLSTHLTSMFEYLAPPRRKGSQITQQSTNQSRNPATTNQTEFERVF

For orientation: half-life means the time needed for the level to fall by half in the phase considered. Usually clearance stands for the rate of elimination divided by the concentration. The inhibition is the relative decrease from the control value, in per cent. In general, IC50 refers to the concentration that inhibits the measured activity by half. As a reminder, the EC50 is the concentration giving half of the maximal effect.

In brackets after ≈: the same amount, converted by molar mass. Activity calls are given as the source filed them. Bounds are passed on as bounds.

T1 sequence (P50750 whole entry): as the sequence (Q99J95 whole entry) above, with T17S, K37R, Q40K, K258N, F262Y counted along it

As to `CC(=O)N[C@@H]1CCC[C@H](C(=O)Nc2cc(-c3cnn4c3CCCC4)c(Cl)cn2)C1`, the half-life is 30 min in data set [1] and 27 min in data set [7] (dose 4.8 µmol/kg). In data set [2], this compound gave a solubility thermodynamic of 0.094 mg/mL (≈ 226 µM). The compound further had a clearance in data set [3] of 3.9 L/h/kg. Also, the Drug metabolism entry in data set [4] and in [5] was “Metabolite_Detected” in each case. For the same compound, in data set [6], the inhibition turned out to be 93%.
As to `CC(=O)N[C@@H]1CCC[C@H](C(=O)Nc2cc(-c3cnn4c3CC(C)(C)C4)c(F)cn2)C1`, the Drug metabolism result in data set [8], in data set [14] and in [15] was “Metabolite_Detected” throughout. For the same compound, in [9], the IC50 was > 3 µM. In addition, the EC50 in data set [10] was 0.029 µM. The solubility thermodynamic in [11] was 0.03 mg/mL (≈ 72.6 µM); in data set [12], 0.057 mg/mL (≈ 138 µM). For the same compound, in data set [13], the Ratio IC50 amounted to 16. For the same compound, the inhibition in data set [6] was found to be 100%. Moreover, the half-life in data set [7] (dose 2.4 µmol/kg) was 9.6 min.
Consider `CC(=O)N[C@@H]1CCC[C@H](C(=O)Nc2cc(-c3cnn4c3CC(C)(C)C4)c(Cl)cn2)C1` [ZEMIRCICLIB], for which the inhibition in data set [16] and in [18] was 85% each time. For the same compound, the IC50 in data set [17] came to 0.247 µM; in data set [23], 0.187 µM. The figures for the clearance in data set [19] and in [20] were 1.14 L/h/kg and 0.96 L/h/kg, respectively. The values for the solubility thermodynamic in data set [11] and in [12] were 0.017 mg/mL (≈ 39.5 µM) and 0.05 mg/mL (≈ 116 µM), respectively. In addition, the Vd in data set [21] came to 0.67 L/kg. In data set [22], the half-life was 53.4 min. Besides, the Activity in [24] is on record as 100%. Moreover, the inhibition entry in data set [25] is “Active”.
